From PMC9679992, “Fusicoccin-A Targets Cancerous Inhibitor of Protein Phosphatase 2A by Stabilizing a C-Terminal Interaction with 14-3-3” (ACS Chemical Biology, 2022)
Like-named read-outs stand apart in the source and are kept apart here. Peptide text beside a SMILES is read from it. * marks the point of attachment. Cbz = O=C(OCc1ccccc1)*

Assays:
GST-14-3-3η / CIP2A = assay: GST-14-3-3η pulldown of CIP2A, MDA-MB-468 cell lysates; type: binding; settings: lysate preincubated with 200 μM ATP, 10 mM MgCl2, 1 hour 37 °C
Method: (§1) (A) Cartoon showing FC-A coupled to magnetic hydrazide beads. (B) Western blot showing the results of an FC-beads pulldown experiment in MDA-MB-468 cell lysates. (C) Western blot of the GST14-3-3η pulldown of CIP2A in MDA-MB-468 cell lysates. […] (D) Western blot of MDA-MB-468 cell lysates after treatment of cells with 30 μM FC-A or a vehicle control for 24 h before harvest. Quantification was performed after normalization to an actin loading control. […] Membrane was probed with our custom CIP2A pS904, C-terminal CIP2A, and actin antibodies. (E) Western blot of GST14-3-3η pulldown of CIP2A in MDA-MB-468 cell lysates from cells either treated with 30 μM FC-A or a vehicle control for 24 h before harvest. Representative Western blots are shown of three (B–D) or two (E) independent experiments.

GST-14-3-3η = target: T1, GST-14-3-3η (Homo sapiens, UniProt Q04917); assay: Fluorescent polarization, GST14-3-3η titrated to FAM-pCIP2A peptide; type: binding, Hs; settings: FP, GST14-3-3η titrated to 100 nM FAM peptide, PBS pH 7.5, RT, 30 min
T1 construct: made in house; host or cells: Rosetta 2 (DE3)pLysS E. coli
T1 sequence (Q04917 1-246): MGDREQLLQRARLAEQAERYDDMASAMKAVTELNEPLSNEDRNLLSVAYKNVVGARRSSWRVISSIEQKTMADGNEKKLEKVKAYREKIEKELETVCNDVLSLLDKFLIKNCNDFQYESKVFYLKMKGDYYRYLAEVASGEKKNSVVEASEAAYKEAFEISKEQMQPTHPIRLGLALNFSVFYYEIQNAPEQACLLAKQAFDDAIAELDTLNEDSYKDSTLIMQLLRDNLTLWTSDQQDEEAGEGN
Method: Data is shown as mean ± SEM of three independent experiments. (E) Fluorescent polarization GST14-3-3η concentration–response curves generated in the presence of 10 μM FC-A or buffer using 100 nM of peptide 3. (F) Fluorescent polarization concentration–response curve of FC-A stabilizing the interaction between 1.5 μM GST14-3-3η and 100 nM peptide 3. Data is presented as the mean ± SEM of three independent experiments.
First, concentration–response curves were made using peptide 3, which was N-terminally labeled with fluorescein and in which Ser904 is phosphorylated by titrating to N-terminally GST-tagged 14-3-3η (GST-14-3-3η) at a fixed concentration of FC-A (10 μM) or a buffer control.
peptide was dissolved in phosphate saline buffer (PBS) with a pH of 7.5. Concentration curves of recombinant GST-14-3-3η were produced by mixing various concentrations of the protein diluted in assay buffer (PBS, pH=7.5) with a fixed 100 nM of the FAM labelled peptide and either a DMSO vehicle control or a fixed 10 μM Fusicoccin – A (FC-A). FC-A concentration curves were generated by mixing various concentrations of FC-A diluted in PBS with a fixed 100 nM of FAM - CIP2A and a fixed 4.7 μM of GST-14-3-3η. […]

CIP2A / 14-3-3 = assay: GST14-3-3η pulldown of CIP2A from FC-A treated MDA-MB-468 cells; type: cell-based; settings: cells treated with 30 μM FC-A 24 h vs control; two independent experiments
Method: as §1, with “experiments. […]” for “experiments.”

H^+-ATPase = settings: 14-3-3/FC-A; cited from earlier work
ERα = settings: cited from earlier work
14-3-3η/pCIP2A complex = assay: Fluorescent polarization, FC-A stabilization of 14-3-3η/pCIP2A; set-up: species or system Hs; settings: FP, FC-A titrated to 100 nM peptide 3 and 1.5 μM GST14-3-3η (legend; SI: 4.7 μM); PBS, RT, 30 min; mean of three independent experiments; read-out: EC50 (FC-A enhancing binding of 14-3-3η to pCIP2A)
Excerpt: Figure 1 The C-terminus of CIP2A contains a mode-III 14-3-3 binding motif. (A) CIP2A’s C-terminus overlaid with 14-3-3 mode-III binding motif. The putative phosphosite is highlighted red with an alignment of the C-terminal amino acid sequence of CIP2A from different species shown below. (B) Chemical structure of Fusicoccin-A. (C) Overview of N-terminally biotinylated or fluorescein labeled CIP2A peptides either non- or phosphorylated on Ser904. (D) Homogeneous time-resolved FRET (HTRF) assay in which an N-terminally GST tagged 14-3-3η is targeted with an anti-GST europium (Eu) cryptate labeled monoclonal antibody and CIP2A peptides 1 and 2 used are N-terminally biotinylated and labeled with streptavidin conjugated to XL665. Concentration–response curves are shown for peptide 1 (Ser904) and peptide 2 (pSer904) in the presence or absence of a fixed 10 μM FC-A and 10 nM GST14-3-3η. Data is shown as mean ± SEM of three independent experiments. […]
FC-A beads were produced in a two-step reaction as previously described by Feyerabend and Weiler, 1987 by first generating FC-aldehyde (FC-Ald) which, was subsequently coupled to magnetic hydrazide beads (Chemicell, Cat#1404). […] Before coupling to magnetic hydrazide beads reaction efficiency was determined by HPLC analysis. […]

CIP2A Ser904 = type: cell-based
Method: as §1, with “experiments. […]” for “experiments.”

CIP2A = type: cell-based
Method: as §1, with “experiments. […]” for “experiments.”

[1] = tested on: cancer cells, including breast cancer; settings: FC-A and its derivatives; cited from earlier work
Excerpt: It has been shown that polo-like kinase 1 (PLK1) can bind to the C-terminal tip of CIP2A and phosphorylate its penultimate residue Ser904.[11] We hypothesized that phosphorylation of Ser904 could create a C-terminal binding site for the regulatory proteins 14-3-3, which act as molecular scaffolds in the cell through regulation of protein–protein interactions (PPIs) in key cellular processes. A unique feature of a subset of C-terminal 14-3-3 interactions is that they can be targeted by the diterpene glucoside Fusicoccin-A (FC-A) for PPI stabilization.[12],[13] In several studies, FC-A and its d ...

[2] = target: T2, 14-3-3η (N-terminally GST tagged) (Homo sapiens, UniProt Q04917); assay: HTRF assay of CIP2A C-terminal peptides with GST14-3-3η; type: binding, Hs; settings: HTRF concentration–response, nonphosphorylated peptide; 10 nM GST14-3-3η; presence or absence of 10 μM FC-A
T2 construct: made in house; host or cells: Rosetta 2 (DE3)pLysS E. coli
T2 sequence (Q04917 1-246): T1 sequence (Q04917 1-246)
Excerpt: Therefore, using (non)phosphorylated C-terminal CIP2A peptides, we investigated whether 14-3-3 could directly interact with CIP2A (Figure 1C). First, we developed a homogeneous time-resolved FRET (HTRF) assay for this putative interaction and its phosphorylation dependence (Figure 1D). […] Europium is excited at a wavelength of 337 nm resulting in emission at a wavelength of 620 nm. If 14-3-3 interacts with the CIP2A peptide, resonance energy transfer can occur resulting in excitation and emission of XL665 at a wavelength of 665 nm.
Data is shown as mean ± SEM of three independent experiments. […] Data is presented as the mean ± SEM of three independent experiments.

Molecule: Nc1ncnc2c1ncn2[C@@H]1O[C@H](COP(=O)(O)OP(=O)(O)OP(=O)(O)O)[C@@H](O)[C@H]1O [ATP]
- effect on CIP2A pulldown by GST-14-3-3η (GST-14-3-3η / CIP2A): more CIP2A was identified in pulldown samples

Molecule: CC[C@H](C)[C@H](NC(=O)[C@H](COP(=O)(O)O)NC(=O)[C@H](CC(C)C)NC(=O)[C@H](CC(N)=O)NC(=O)[C@@H](NC(=O)[C@@H](NC(=O)[C@H](CCC(=O)O)NC(=O)[C@@H]1CCCN1C(=O)[C@H](CC(N)=O)NC(=O)[C@@H](NC(=O)c1ccc2c(c1)C(=O)OC21c2ccc(O)cc2Oc2cc(O)ccc21)[C@@H](C)CC)[C@@H](C)O)C(C)C)C(=O)O [FAM-pCIP2A peptide]
- EC50 (GST-14-3-3η; buffer / DMSO control, read-out: EC50): 118 µM
- EC50 (GST-14-3-3η; fixed 10 μM FC-A, read-out: EC50 (shift in presence of FC-A)): 2.76 µM

Molecule: C=CC(C)(C)OC[C@H]1O[C@H](O[C@@H]2C3=C([C@H](C)COC(C)=O)C[C@H](O)[C@]3(C)/C=C3/[C@@H](COC)CC[C@H]3[C@@H](C)[C@H]2O)[C@H](O)[C@@H](OC(C)=O)[C@@H]1O [FC-A, Fusicoccin-A]
- CIP2A in GST-14-3-3η pulldown (CIP2A / 14-3-3): more CIP2A could be detected in these samples compared to control cell lysates
- protection of penultimate C-terminal phosphorylation site (H^+-ATPase): shields the penultimate C-terminal phosphorylation site from phosphatases
- effect on detection of C-terminal phosphorylation of ERα (ERα; MCF-7 cells treated with FC-A): necessary to detect C-terminal phosphorylation of the ERα
- EC50 (14-3-3η/pCIP2A complex): 11.8 µM
- Fold Change (Norm. to CTL): CIP2A pS904 (CIP2A Ser904): 2.55
- effect on Ser904 phosphorylation levels (CIP2A Ser904; FC-A 24 h, MDA-MB-468): Ser904 phosphorylation levels were enhanced
- Fold Change (Norm. to CTL): CIP2A Tot. (CIP2A): 0.79
- effect on total CIP2A in presence of cycloheximide (CIP2A; 30 μM FC-A with 100 µg/mL cycloheximide, 24 h, MDA-MB-468, three independent experiments): no changes in total CIP2A over a 24 h period
- effect on total CIP2A (CIP2A; FC-A 24 h, MDA-MB-468): did not affect total CIP2A
- antiproliferative effects [1]: antiproliferative effects in cancer cells, including breast cancer

Molecule: CC(C)C[C@@H](C=O)NC(=O)[C@H](CC(C)C)NC(=O)[C@H](CC(C)C)NC(=O)OCc1ccccc1 [MG132] (Cbz-Leu-Leu-Leu-aldehyde)
- effect on phosphorylation of ERα C-terminal tip (ERα; proteasome inhibitor MG132, in addition to FC-A): additional requirement for phosphorylation of the C-terminal tip

Molecule: Bio-LSSGGKINPETVNL-S^904-I-COOH [peptide 1, N-terminally biotinylated nonphosphorylated C-terminal CIP2A peptide]
- interaction with 14-3-3 [2]: does not interact with 14-3-3
